From the supplement of paper PMC10307832

What was measured:
Assay in all cases: relative viability (nuclei count vs DMSO), 5 days (fraction); higher = more cells survive
[1] = compound: CS(=O)(=O)c1ccc(C(=O)Nc2ccc(Cl)c(-c3ccccn3)c2)c(Cl)c1 [Vismodegib] + COc1cccc2cc(-c3nc([C@H]4CC[C@H](C(=O)O)CC4)n4ncnc(N)c34)[nH]c12 [OSI-027] (partner 0.5 µM)
How it was run: (§1)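 Relative viability divides the nuclei count in treated wells by that in vehicle wells. Lung cancer cell lines were seeded in 1536-well plates, dosed by pin tool the next day, and fixed and stained after 5 days in one step with final 0.05% Triton X-100, 1% formaldehyde and 1 ug/ml Hoechst. Dosing was a single drug or a fixed anchor-drug dose plus five library-drug doses (not always all listed) in √10 steps, and values are medians of duplicate plates imaged at 4×.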

[2] = compound: CS(=O)(=O)c1ccc(-c2cnc(N)c(C(=O)Nc3ccccc3)n2)cc1 [VE-821] + CCNC(=O)c1noc(-c2cc(C(C)C)c(O)cc2O)c1-c1ccc(CN2CCOCC2)cc1 [Luminespib] (partner 0.01 µM)
How it was run: as §1

[3] = compound: CS(=O)(=O)c1ccc(-c2cnc(N)c(C(=O)Nc3ccccc3)n2)cc1 [VE-821] + Cc1nc(Nc2ncc(C(=O)Nc3c(C)cccc3Cl)s2)cc(N2CCN(CCO)CC2)n1 [Dasatinib] (partner 0.075 µM)
How it was run: as §1

[4] = compound: N#CC[C@H](C1CCCC1)n1cc(-c2ncnc3[nH]ccc23)cn1 [Ruxolitinib] + O=C(CCCCCCC(=O)Nc1ccccc1)NO [Vorinostat] (partner 1 µM)
How it was run: as §1

NCI-H838 was tested, and the relative viability ([1]; first compound 0.08 µM) was 0.416, the relative viability ([1]; first compound 0.253 µM) was 0.334 and the relative viability ([1]; first compound 0.8 µM) was 0.338. It also gave a relative viability ([1]; first compound 2.53 µM) of 0.41, a relative viability ([1]; first compound 8 µM) of 0.441 and a relative viability ([2]; first compound 0.08 µM) of 0.275. It also gave a relative viability ([2]; first compound 0.253 µM) of 0.225, a relative viability ([2]; first compound 0.8 µM) of 0.224 and a relative viability ([2]; first compound 2.53 µM) of 0.266. It also gave a relative viability ([2]; first compound 8 µM) of 0.158, a relative viability ([3]; first compound 0.08 µM) of 0.301 and a relative viability ([3]; first compound 0.253 µM) of 0.259. For the same cell line, the relative viability ([3]; first compound 2.53 µM) was 0.288, the relative viability ([3]; first compound 8 µM) was 0.24 and the relative viability ([4]; first compound 0.08 µM) was 0.734. The relative viability ([4]; first compound 0.253 µM) was 0.669, the relative viability ([4]; first compound 0.8 µM) was 0.685 and the relative viability ([4]; first compound 2.53 µM) was 0.535. For the same cell line, the relative viability ([4]; first compound 8 µM) was 0.349.

NCI-H1355 was tested, and the relative viability ([1]; first compound 0.08 µM) was 0.488, the relative viability ([1]; first compound 0.253 µM) was 0.447 and the relative viability ([1]; first compound 0.8 µM) was 0.378. For the same cell line, the relative viability ([1]; first compound 2.53 µM) was 0.444, the relative viability ([1]; first compound 8 µM) was 0.399 and the relative viability ([2]; first compound 0.08 µM) was 0.71. The relative viability ([2]; first compound 0.253 µM) was 0.665, the relative viability ([2]; first compound 0.8 µM) was 0.643 and the relative viability ([2]; first compound 2.53 µM) was 0.597. The relative viability ([2]; first compound 8 µM) was 0.409, the relative viability ([3]; first compound 0.08 µM) was 0.748 and the relative viability ([3]; first compound 0.253 µM) was 0.65. The relative viability ([3]; first compound 0.8 µM) was 0.609, the relative viability ([3]; first compound 2.53 µM) was 0.627 and the relative viability ([3]; first compound 8 µM) was 0.575. For the same cell line, the relative viability ([4]; first compound 0.08 µM) was 0.69, the relative viability ([4]; first compound 0.253 µM) was 0.564 and the relative viability ([4]; first compound 0.8 µM) was 0.691. For the same cell line, the relative viability ([4]; first compound 2.53 µM) was 0.6 and the relative viability ([4]; first compound 8 µM) was 0.536.

NCI-H1395 gave a relative viability ([1]; first compound 0.08 µM) of 0.608, a relative viability ([1]; first compound 0.253 µM) of 0.562 and a relative viability ([1]; first compound 0.8 µM) of 0.596. The relative viability ([1]; first compound 2.53 µM) was 0.599, the relative viability ([1]; first compound 8 µM) was 0.686 and the relative viability ([2]; first compound 0.08 µM) was 0.7. For the same cell line, the relative viability ([2]; first compound 0.253 µM) was 0.677, the relative viability ([2]; first compound 0.8 µM) was 0.704 and the relative viability ([2]; first compound 2.53 µM) was 0.636. It also gave a relative viability ([2]; first compound 8 µM) of 0.525, a relative viability ([3]; first compound 0.08 µM) of 0.396 and a relative viability ([3]; first compound 0.253 µM) of 0.432. The relative viability ([3]; first compound 0.8 µM) was 0.38, the relative viability ([3]; first compound 2.53 µM) was 0.45 and the relative viability ([3]; first compound 8 µM) was 0.401. For the same cell line, the relative viability ([4]; first compound 0.08 µM) was 0.577, the relative viability ([4]; first compound 0.253 µM) was 0.506 and the relative viability ([4]; first compound 0.8 µM) was 0.743. The relative viability ([4]; first compound 2.53 µM) was 0.717 and the relative viability ([4]; first compound 8 µM) was 0.654.

Cell Line NCI-H1437 has a relative viability ([1]; first compound 0.08 µM) of 0.884, a relative viability ([1]; first compound 0.253 µM) of 0.805 and a relative viability ([1]; first compound 0.8 µM) of 0.905. It also gave a relative viability ([1]; first compound 2.53 µM) of 0.858, a relative viability ([1]; first compound 8 µM) of 0.804 and a relative viability ([2]; first compound 0.08 µM) of 1.19. It also gave a relative viability ([2]; first compound 0.253 µM) of 1.15, a relative viability ([2]; first compound 0.8 µM) of 1.06 and a relative viability ([2]; first compound 2.53 µM) of 1.19. For the same cell line, the relative viability ([2]; first compound 8 µM) was 0.878, the relative viability ([3]; first compound 0.08 µM) was 0.479 and the relative viability ([3]; first compound 0.253 µM) was 0.357. It also gave a relative viability ([3]; first compound 0.8 µM) of 0.386, a relative viability ([3]; first compound 2.53 µM) of 0.498 and a relative viability ([3]; first compound 8 µM) of 0.302. For the same cell line, the relative viability ([4]; first compound 0.08 µM) was 1.14, the relative viability ([4]; first compound 0.253 µM) was 1.04 and the relative viability ([4]; first compound 0.8 µM) was 1.1. For the same cell line, the relative viability ([4]; first compound 2.53 µM) was 0.859 and the relative viability ([4]; first compound 8 µM) was 0.627.

NCI-H1650 was tested, and the relative viability ([1]; first compound 0.08 µM) was 0.652, the relative viability ([1]; first compound 0.253 µM) was 0.562 and the relative viability ([1]; first compound 0.8 µM) was 0.577. It also gave a relative viability ([1]; first compound 2.53 µM) of 0.555, a relative viability ([1]; first compound 8 µM) of 0.729 and a relative viability ([2]; first compound 0.08 µM) of 0.204. For the same cell line, the relative viability ([2]; first compound 0.253 µM) was 0.19, the relative viability ([2]; first compound 0.8 µM) was 0.25 and the relative viability ([2]; first compound 2.53 µM) was 0.211. For the same cell line, the relative viability ([2]; first compound 8 µM) was 0.172, the relative viability ([3]; first compound 0.08 µM) was 0.312 and the relative viability ([3]; first compound 0.253 µM) was 0.322. It also gave a relative viability ([3]; first compound 0.8 µM) of 0.28, a relative viability ([3]; first compound 2.53 µM) of 0.255 and a relative viability ([3]; first compound 8 µM) of 0.211. For the same cell line, the relative viability ([4]; first compound 0.08 µM) was 0.558, the relative viability ([4]; first compound 0.253 µM) was 0.557 and the relative viability ([4]; first compound 0.8 µM) was 0.708. For the same cell line, the relative viability ([4]; first compound 2.53 µM) was 0.551 and the relative viability ([4]; first compound 8 µM) was 0.57.

NCI-H1651 showed a relative viability ([1]; first compound 0.08 µM) of 0.658, a relative viability ([1]; first compound 0.253 µM) of 0.774 and a relative viability ([1]; first compound 0.8 µM) of 0.543. The relative viability ([1]; first compound 2.53 µM) was 0.771, the relative viability ([1]; first compound 8 µM) was 0.703 and the relative viability ([2]; first compound 0.08 µM) was 0.907. The relative viability ([2]; first compound 0.253 µM) was 0.819, the relative viability ([2]; first compound 0.8 µM) was 0.63 and the relative viability ([2]; first compound 2.53 µM) was 1.16. The relative viability ([2]; first compound 8 µM) was 0.679, the relative viability ([3]; first compound 0.08 µM) was 0.471 and the relative viability ([3]; first compound 0.253 µM) was 0.46. For the same cell line, the relative viability ([3]; first compound 0.8 µM) was 0.424, the relative viability ([3]; first compound 2.53 µM) was 0.437 and the relative viability ([3]; first compound 8 µM) was 0.323. The relative viability ([4]; first compound 0.08 µM) was 0.601, the relative viability ([4]; first compound 0.253 µM) was 0.52 and the relative viability ([4]; first compound 0.8 µM) was 0.523. It also gave a relative viability ([4]; first compound 2.53 µM) of 0.472 and a relative viability ([4]; first compound 8 µM) of 0.573.

For NCI-H1666, the relative viability ([1]; first compound 0.08 µM) was 0.841, the relative viability ([1]; first compound 0.253 µM) was 0.764 and the relative viability ([1]; first compound 0.8 µM) was 0.786. It also gave a relative viability ([1]; first compound 2.53 µM) of 0.858, a relative viability ([1]; first compound 8 µM) of 0.958 and a relative viability ([2]; first compound 0.08 µM) of 1.04. For the same cell line, the relative viability ([2]; first compound 0.253 µM) was 1.01, the relative viability ([2]; first compound 0.8 µM) was 1.1 and the relative viability ([2]; first compound 2.53 µM) was 1.03. For the same cell line, the relative viability ([2]; first compound 8 µM) was 0.761, the relative viability ([3]; first compound 0.08 µM) was 0.841 and the relative viability ([3]; first compound 0.253 µM) was 0.78. For the same cell line, the relative viability ([3]; first compound 0.8 µM) was 0.816, the relative viability ([3]; first compound 2.53 µM) was 0.695 and the relative viability ([3]; first compound 8 µM) was 0.578. For the same cell line, the relative viability ([4]; first compound 0.08 µM) was 1.05, the relative viability ([4]; first compound 0.253 µM) was 1.07 and the relative viability ([4]; first compound 0.8 µM) was 1.1. The relative viability ([4]; first compound 2.53 µM) was 1.08 and the relative viability ([4]; first compound 8 µM) was 1.14.

With NCI-H1734 the relative viability ([1]; first compound 0.08 µM) was 0.603, the relative viability ([1]; first compound 0.253 µM) was 0.598 and the relative viability ([1]; first compound 0.8 µM) was 0.727. The relative viability ([1]; first compound 2.53 µM) was 0.577, the relative viability ([1]; first compound 8 µM) was 0.605 and the relative viability ([2]; first compound 0.08 µM) was 0.199. The relative viability ([2]; first compound 0.253 µM) was 0.197, the relative viability ([2]; first compound 0.8 µM) was 0.208 and the relative viability ([2]; first compound 2.53 µM) was 0.165. The relative viability ([2]; first compound 8 µM) was 0.193, the relative viability ([3]; first compound 0.08 µM) was 0.51 and the relative viability ([3]; first compound 0.253 µM) was 0.455. It also gave a relative viability ([3]; first compound 0.8 µM) of 0.479, a relative viability ([3]; first compound 2.53 µM) of 0.425 and a relative viability ([3]; first compound 8 µM) of 0.33. The relative viability ([4]; first compound 0.08 µM) was 0.886, the relative viability ([4]; first compound 0.253 µM) was 0.806 and the relative viability ([4]; first compound 0.8 µM) was 0.902. The relative viability ([4]; first compound 2.53 µM) was 0.797 and the relative viability ([4]; first compound 8 µM) was 0.863.
